Source: patent publication US9226501B2, “Pesticidal compositions and processes related thereto” (Dow AgroSciences LLC, priority 2012, dated 2016)

Tests used:
[1] = system: Cabbage Looper (CL) (Trichoplusia ni); assay: Bioassay on cabbage looper (CL), 128-well diet tray assay; format: in vivo; conditions: for pest or weed control at 50 µg/cm2: Trichoplusia ni, 168 h, % mortality, second instar larvae, 50 μg/cm^2 on artificial diet, five to seven days, 25° C., read-out: CL Rating; for CL Rating: Table 5, prophetic compounds subsequently exemplified, cabbage looper
Protocol: (§1) Certain molecules disclosed in this document were tested against BAW, CEW and CL using procedures described in the following examples. In the reporting of the results, the “BAW & CEW & CL Rating Table” was used (See Table Section).
Bioassays on CL were conducted using a 128-well diet tray assay. One to five second instar CL larvae were placed in each well (3 mL) of the diet tray that had been previously filled with 1 mL of artificial diet to which 50 μg/cm^2 of the test compound (dissolved in 50 μL of 90:10 acetone-water mixture) had been applied (to each of eight wells) and then allowed to dry. Trays were covered with a clear self-adhesive cover, and held at 25° C., 14:10 light-dark for five to seven days. Percent mortality was recorded for the larvae in each well; activity in the eight wells was then averaged. The results are indicated in the table entitled “Table 4: Assay Results Part 2” (See Table Section).

[2] = system: Beet Armyworm (BAW) (spodoptera exigua); assay: Bioassay on beet armyworm (BAW), 128-well diet tray assay; format: in vivo; conditions: for pest or weed control at 50 µg/cm2: Spodoptera exigua, 168 h, % mortality, second instar larvae, 50 μg/cm^2 on artificial diet, five to seven days, 25° C., read-out: BAW Rating
Protocol: as §1
Bioassays on BAW were conducted using a 128-well diet tray assay. One to five second instar BAW larvae were placed in each well (3 mL) of the diet tray that had been previously filled with 1 mL of artificial diet to which 50 μg/cm^2 of the test compound (dissolved in 50 μL of 90:10 acetone-water mixture) had been applied (to each of eight wells) and then allowed to dry. Trays were covered with a clear self-adhesive cover, and held at 25° C., 14:10 light-dark for five to seven days. Percent mortality was recorded for the larvae in each well; activity in the eight wells was then averaged. The results are indicated in the tables entitled “Table 3: Assay Results Part 1” and “Table 4: Assay Results Part 2” (See Table Section).

[3] = Table 5, prophetic compounds subsequently exemplified, beet armyworm

SMILES | CL Rating [1] | BAW Rating [2, 3] | other results
C=Cc1cc(/C=C/C(c2cc(Cl)c(Cl)c(Cl)c2)C(F)(F)F)ccc1C(=O)NCC(=O)NCC(F)(F)F (stereo not shown) [FA18] | – | – | pest or weed control at 50 µg/cm2 [1]: 50 to 100%; pest or weed control at 50 µg/cm2 [2]: 50 to 100%
C[C@@H](NC(=O)c1ccc(/C=C/C(c2cc(Cl)cc(Br)c2)C(F)(F)F)cc1Br)C(=O)NCC(F)(F)F (stereo partly shown) [P586] | A (50-100) | A (50-100) | –
CS(=O)(=O)c1cc(/C=C/C(c2cc(Cl)c(F)c(Cl)c2)C(F)(F)F)ccc1C(=O)NCC(=O)NCC(F)(F)F (stereo not shown) [FA34] | – | – | pest or weed control at 50 µg/cm2 [1]: 50 to 100%
C[C@@H](NC(=O)c1ccc(/C=C/C(c2ccc(F)c(F)c2F)C(F)(F)F)cc1C(F)(F)F)C(=O)NCC(F)(F)F (stereo partly shown) [P84] | A (50-100) | A (50-100) | –
Cc1cc(/C=C/C(c2cc(Br)cc(Br)c2)C(F)(F)F)ccc1C(=O)NCC(=O)NCC(F)(F)F (stereo not shown) [P1972] | A (50-100) | A (50-100) | –
O=C(CNC(=O)c1cc(O)c(/C=C/C(c2cc(Cl)c(Cl)c(Cl)c2)C(F)(F)F)cc1Cl)NCC(F)(F)F (stereo not shown) [FA4] | – | – | pest or weed control at 50 µg/cm2 [1]: 50 to 100%; pest or weed control at 50 µg/cm2 [2]: 50 to 100%
O=C(CNC(=O)c1ccc(/C=C/C(c2cc(Cl)c(Cl)c(Cl)c2)C(F)(F)F)cc1C(F)(F)F)NCC(F)F (stereo not shown) [P1566] | A (50-100) | A (50-100) | –
C[C@@H](NC(=O)c1ccc(/C=C/C(c2cc(Br)cc(Br)c2)C(F)(F)F)cc1C(F)(F)F)C(=O)NCCF (stereo partly shown) [P2043] | A (50-100) | A (50-100) | –
O=C(NCCc1ccc(Cl)nc1)c1ccc(/C=C/C(c2cc(Cl)c(Cl)c(Cl)c2)C(F)(F)F)cc1Br (stereo not shown) [AC113] | – | – | BAW Rating ([2]; Table 3, beet armyworm): B (More than 0-Less than 50)
CC(C)(NC(=O)c1ccc(/C=C/C(c2cc(Cl)c(Cl)c(Cl)c2)C(F)(F)F)cc1C(F)(F)F)C(=S)NCC(F)(F)F (stereo not shown) [FA12] | – | – | pest or weed control at 50 µg/cm2 [1]: 50 to 100%; pest or weed control at 50 µg/cm2 [2]: 50 to 100%
C[C@@H](NC(=O)c1ccc(/C=C/C(c2cc(Cl)cc(Cl)c2)C(F)(F)F)cc1Br)C(=O)NCC(F)(F)F (stereo partly shown) [P1696] | A (50-100) | A (50-100) | –
C[C@@H](NC(=O)c1ccc(/C=C/C(c2ccc(Cl)c(Cl)c2)C(C)(F)F)cc1Br)C(=O)NCC(F)(F)F (stereo partly shown) [FA29] | – | – | pest or weed control at 50 µg/cm2 [1]: 50 to 100%; pest or weed control at 50 µg/cm2 [2]: 50 to 100%
CC(C)(NC(=O)c1ccc(/C=C/C(c2cc(Cl)c(Cl)c(Cl)c2)C(F)(F)F)cc1)C(=O)NCC(F)(F)F (stereo not shown) [P1636] | A (50-100) | A (50-100) | –
O=C(CNC(=O)c1ccc(/C=C/C(c2cccc(C(F)(F)F)c2)C(F)(F)F)cc1Br)NCC(F)(F)F (stereo not shown) [P1] | A (50-100) | A (50-100) | –
Cc1cc(/C=C/C(c2cc(Cl)c(Cl)c(Cl)c2)C(F)(F)F)ccc1C(=O)NCC(=O)NC(C)C(F)(F)F (stereo not shown) [P1592] | A (50-100) | A (50-100) | –
O=C(CNC(=O)c1ccc(/C=C/C(c2cc(Cl)c(Cl)c(Cl)c2)C(F)(F)F)cc1I)NCC(F)(F)F (stereo not shown) [FA24] | – | – | pest or weed control at 50 µg/cm2 [1]: 50 to 100%; pest or weed control at 50 µg/cm2 [2]: 50 to 100%
O=C(CNC(=O)c1ccc(/C=C/C(c2ccc(F)c(C(F)(F)F)c2)C(F)(F)F)cc1Br)NCC(F)(F)F (stereo not shown) [P1483] | A (50-100) | A (50-100) | –
FC(F)(F)C(/C=C/c1ccc(-n2cncn2)cc1)c1ccccc1 (stereo not shown) [DC3] | – | – | BAW Rating ([2]; Table 3, beet armyworm): B (More than 0-Less than 50)
C[C@@H](NC(=O)c1ccc(/C=C/C(c2cc(Cl)c(Cl)cc2Cl)C(F)(F)F)cc1Br)C(=O)NCC(F)(F)F (stereo partly shown) [P156] | A (50-100) | A (50-100) | –

SMILES | CL Rating [1] | BAW Rating [2, 3] | other results
C[C@@H](NC(=O)c1ccc(/C=C/C(c2ccc(F)c(C#N)c2)C(F)(F)F)cc1C(F)(F)F)C(=O)NCC(F)(F)F (stereo partly shown) [P804] | A (50-100) | A (50-100) | –
C[C@@H](NC(=O)c1ccc(/C=C/C(c2cc(F)cc(Br)c2)C(F)(F)F)cc1C(F)(F)F)C(=O)NCC(F)(F)F (stereo partly shown) [P300] | A (50-100) | A (50-100) | –
CC(C)(NC(=O)c1ccc(/C=C/C(c2cc(Cl)c(Cl)c(Cl)c2)C(F)(F)F)cc1Cl)C(=S)NCC(F)(F)F (stereo not shown) [FA9] | – | – | pest or weed control at 50 µg/cm2 [1]: 50 to 100%; pest or weed control at 50 µg/cm2 [2]: 50 to 100%
C[C@@H](NC(=O)c1ccc(/C=C/C(c2ccc(OC(F)(F)F)c(Cl)c2)C(F)(F)F)cc1Br)C(=O)NCC(F)(F)F (stereo partly shown) [FA30] | – | – | pest or weed control at 50 µg/cm2 [1]: 50 to 100%; pest or weed control at 50 µg/cm2 [2]: 50 to 100%
CC(NC(=O)c1ccc(/C=C/C(c2cc(Cl)c(Cl)c(Cl)c2)C(F)(F)F)cc1Br)C(=O)NCC(F)F (stereo not shown) [P1611A] | A (50-100) | A (50-100) | –
CC(C)(NC(=O)c1ccc(/C=C/C(c2cc(Cl)c(Cl)c(Cl)c2)C(F)(F)F)cc1Br)C(=O)NCC#N (stereo not shown) [FA14] | – | – | pest or weed control at 50 µg/cm2 [1]: 50 to 100%; pest or weed control at 50 µg/cm2 [2]: 50 to 100%
C[C@@H](NC(=O)c1ccc(/C=C/C(c2cc(Cl)cc(Cl)c2)C(F)(F)F)cc1C(F)(F)F)C(=O)NCC(F)(F)F (stereo partly shown) [P1698] | A (50-100) | A (50-100) | –
CC(NC(=O)CNC(=O)c1ccc(/C=C/C(c2cc(Br)cc(Br)c2)C(F)(F)F)cc1Br)C(F)(F)F (stereo not shown) [P2009] | A (50-100) | A (50-100) | –
Cc1cc(/C=C/C(c2cc(Cl)c(Cl)c(Cl)c2)C(F)(F)F)cc(C)c1C(=O)N[C@H](C)C(=O)NCC(F)(F)F (stereo partly shown) [FA28] | – | – | pest or weed control at 50 µg/cm2 [1]: 50 to 100%; pest or weed control at 50 µg/cm2 [2]: 50 to 100%
O=C(CNC(=O)c1ccc(/C=C/C(c2cc(Br)cc(Br)c2)C(F)(F)F)cc1C(F)(F)F)NCC(F)(F)F (stereo not shown) [P1971] | A (50-100) | A (50-100) | –
O=C(NCc1ccc(/C=C/C(c2cc(Cl)c(Cl)c(Cl)c2)C(F)(F)F)cc1C(F)(F)F)c1cccnc1 (stereo not shown) [CC23] | – | – | BAW Rating ([2]; Table 3, beet armyworm): A (50-100)
O=C(CNC(=O)c1ccc(/C=C/C(c2cc(Cl)c(O)c(Cl)c2)C(F)(F)F)cc1Br)NCC(F)(F)F (stereo not shown) [FA13] | – | – | pest or weed control at 50 µg/cm2 [1]: 50 to 100%
O=C(CCNC(=O)c1ccc(/C=C/C(c2cc(Cl)c(Cl)c(Cl)c2)C(F)(F)F)cc1C(F)(F)F)NCC(F)(F)F (stereo not shown) [P1640] | A (50-100) | – | –
CCNC(=O)NCc1ccc(/C=C/C(c2cc(Cl)cc(Cl)c2)C(F)(F)F)cc1Cl (stereo not shown) [CC31, (E)-1-(2-Chloro-4-(3-(3,5-dichlorophenyl)-4,4,4-trifluorobut-1-en-1-yl)benzyl)-3-ethylurea] | – | – | BAW Rating ([2]; Table 3, beet armyworm): B (More than 0-Less than 50)
N#Cc1c(F)cc(C(/C=C/c2ccc(C(=O)NCC(=O)NCC(F)(F)F)c(Br)c2)C(F)(F)F)cc1F (stereo not shown) [P2] | A (50-100) | – | –
O=C(NCC(=S)NCC(F)(F)F)c1ccc(/C=C/C(c2cc(Cl)c(Cl)c(Cl)c2)C(F)(F)F)cc1Br (stereo not shown) [AC92, (E)-2-Bromo-N-(2-thioxo-2-((2,2,2-trifluoroethyl)amino)ethyl)-4-(4,4,4-trifluoro-3-(3,4,5-trichlorophenyl)but-1-en-1-yl)benzamide] | – | – | BAW Rating ([2]; Table 3, beet armyworm): A (50-100)
C[C@@H](NC(=O)c1ccc(/C=C/C(c2cc(F)cc(Br)c2)C(F)(F)F)cc1Br)C(=O)NCC(F)(F)F (stereo partly shown) [P298] | A (50-100) | – | –
N#CCN1CCC(NC(=O)c2ccc(/C=C/C(c3cc(Cl)c(Cl)c(Cl)c3)C(F)(F)F)cc2Br)CC1 (stereo not shown) [AC107] | – | – | BAW Rating ([2]; Table 3, beet armyworm): B (More than 0-Less than 50)
O=C(NC1CCN(C2COC2)CC1)c1ccc(/C=C/C(c2cc(Cl)c(Cl)c(Cl)c2)C(F)(F)F)cc1Br (stereo not shown) [AC108, (E)-2-Bromo-N-(1-(oxetan-3-yl)piperidin-4-yl)-4-(4,4,4-trifluoro-3-(3,4,5-trichlorophenyl)but-1-en-1-yl)benzamide] | – | – | BAW Rating ([2]; Table 3, beet armyworm): B (More than 0-Less than 50)
